Experimental data taken from ChEMBL document CHEMBL5036336, “Structure-Guided Optimization Provides a Series of TTK Protein Inhibitors with Potent Antitumor Activity” (J Med Chem, 2021).
Converted amounts (≈) assume the structure as drawn.

Columns and labels:
[1] = molecular target: Muscarinic acetylcholine receptor M3 (Homo sapiens) (UniProt P20309); assay: Inhibition of muscarinic M3 receptor (unknown origin) at 10 uM relative to control
CAL-51 = assay: Antiproliferative activity against human CAL-51 cells assessed as inhibition of cell proliferation measured after 3 days by Cell Titer-Glo luminescence based assay; assay type: functional; conditions: CAL-51, 72 h
Homo sapiens [2] = species on record: Homo sapiens; assay: Selectivity ratio of IC50 for inhibition of JNK1 (unknown origin) to IC50 for inhibition of TTK (unknown origin)
Homo sapiens [3] = species on record: Homo sapiens; assay: Selectivity ratio of IC50 for inhibition of TSSK2 (unknown origin) to IC50 for inhibition of TTK (unknown origin)
[4] = Kinetic solubility of compound in PBS at pH 7.4 at 200 uM incubated for 24 hrs by UPLC/MS analysis; assay type: physicochemical; conditions: read-out: Kinetic_solubility
Homo sapiens [5] = species on record: Homo sapiens; assay: Selectivity index, ratio of IC50 for inhibition of CHK2 (unknown origin) to IC50 for inhibition of TTK (unknown origin)
[6] = molecular target: Proto-oncogene tyrosine-protein kinase Src (Homo sapiens, UniProt P12931); assay: Inhibition of SRC N1 (unknown origin) by Z-lyte assay
Proto-oncogene tyrosine-protein kinase Src, sequence (P12931 2-536 limits assumed): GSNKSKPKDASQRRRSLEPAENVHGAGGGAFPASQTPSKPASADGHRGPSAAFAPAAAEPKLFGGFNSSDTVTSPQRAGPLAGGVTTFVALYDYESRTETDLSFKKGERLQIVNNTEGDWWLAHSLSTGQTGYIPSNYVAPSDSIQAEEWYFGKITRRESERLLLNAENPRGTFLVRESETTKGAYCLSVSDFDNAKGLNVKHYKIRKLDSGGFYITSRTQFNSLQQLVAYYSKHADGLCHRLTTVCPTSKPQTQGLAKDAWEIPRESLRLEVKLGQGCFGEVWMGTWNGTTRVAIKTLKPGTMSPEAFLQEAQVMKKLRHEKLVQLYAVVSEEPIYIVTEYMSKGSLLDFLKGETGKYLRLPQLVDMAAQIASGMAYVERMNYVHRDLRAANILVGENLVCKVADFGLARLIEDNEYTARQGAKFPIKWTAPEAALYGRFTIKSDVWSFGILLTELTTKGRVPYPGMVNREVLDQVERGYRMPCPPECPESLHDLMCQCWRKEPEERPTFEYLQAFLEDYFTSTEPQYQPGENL

Homo sapiens [7] = species on record: Homo sapiens; assay: Selectivity ratio of IC50 for inhibition of N1-SRC (unknown origin) to IC50 for inhibition of TTK (unknown origin)
[8] = Clearance in mouse at 2 mg/kg, iv; assay type: ADME, organism-based; conditions: in vivo
[9] = Inhibition of KNL1 autophosphorylation at T943 residue in human CAL-51 cells measured after 1 hr by Western blot analysis; assay type: cell-based; conditions: CAL-51, 1 h
[10] = molecular target: T1, Dual specificity protein kinase TTK (Homo sapiens, UniProt P33981); assay: Inhibition of TTK autophosphorylation at T686 residue in human CAL-51 cells measured after 1 hr by Western blot analysis; assay type: cell-based
T1 sequence (P33981 whole entry): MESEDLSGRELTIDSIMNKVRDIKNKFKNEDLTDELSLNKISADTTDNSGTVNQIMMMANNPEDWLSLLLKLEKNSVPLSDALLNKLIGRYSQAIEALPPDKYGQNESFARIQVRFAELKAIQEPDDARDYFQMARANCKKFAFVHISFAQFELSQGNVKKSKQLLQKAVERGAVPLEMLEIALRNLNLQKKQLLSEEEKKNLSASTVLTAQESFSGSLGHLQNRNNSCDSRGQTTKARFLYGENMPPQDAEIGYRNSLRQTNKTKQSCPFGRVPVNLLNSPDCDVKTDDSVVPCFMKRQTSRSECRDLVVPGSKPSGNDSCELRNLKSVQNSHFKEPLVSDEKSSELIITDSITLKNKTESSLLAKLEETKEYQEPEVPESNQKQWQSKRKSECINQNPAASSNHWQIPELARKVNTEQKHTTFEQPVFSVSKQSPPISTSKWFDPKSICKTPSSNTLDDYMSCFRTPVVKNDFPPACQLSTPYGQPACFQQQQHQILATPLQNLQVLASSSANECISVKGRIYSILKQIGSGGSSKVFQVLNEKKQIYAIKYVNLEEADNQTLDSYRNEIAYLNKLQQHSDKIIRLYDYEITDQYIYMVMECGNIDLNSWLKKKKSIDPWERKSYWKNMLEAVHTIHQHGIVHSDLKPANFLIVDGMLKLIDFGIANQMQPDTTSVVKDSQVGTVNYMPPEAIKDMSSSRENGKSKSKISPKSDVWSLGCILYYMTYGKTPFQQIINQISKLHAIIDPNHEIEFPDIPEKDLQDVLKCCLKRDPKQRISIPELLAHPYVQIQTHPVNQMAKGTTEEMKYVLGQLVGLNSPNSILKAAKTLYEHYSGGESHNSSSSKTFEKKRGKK

[11] = molecular target: Substance-K receptor (Homo sapiens) (UniProt P21452); assay: Inhibition of Neurokinin NK2 receptor (unknown origin) at 10 uM relative to control
Substance-K receptor (Homo sapiens), sequence (P21452 whole entry): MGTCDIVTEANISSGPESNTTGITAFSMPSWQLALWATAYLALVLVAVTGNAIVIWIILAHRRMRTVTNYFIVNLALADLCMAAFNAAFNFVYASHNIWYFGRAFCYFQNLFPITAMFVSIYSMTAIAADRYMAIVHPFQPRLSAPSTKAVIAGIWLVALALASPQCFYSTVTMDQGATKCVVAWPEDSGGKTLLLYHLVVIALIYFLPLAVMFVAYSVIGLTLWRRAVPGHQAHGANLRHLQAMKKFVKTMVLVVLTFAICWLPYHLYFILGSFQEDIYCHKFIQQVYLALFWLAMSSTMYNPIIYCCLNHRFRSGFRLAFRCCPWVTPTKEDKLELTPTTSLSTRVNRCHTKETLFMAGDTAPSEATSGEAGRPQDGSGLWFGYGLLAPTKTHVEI

[12] = molecular target: Mitogen-activated protein kinase 8 (Homo sapiens, UniProt P45983); assay: Inhibition of JNK1 (unknown origin) by Z-lyte assay
Mitogen-activated protein kinase 8, sequence (P45983 whole entry): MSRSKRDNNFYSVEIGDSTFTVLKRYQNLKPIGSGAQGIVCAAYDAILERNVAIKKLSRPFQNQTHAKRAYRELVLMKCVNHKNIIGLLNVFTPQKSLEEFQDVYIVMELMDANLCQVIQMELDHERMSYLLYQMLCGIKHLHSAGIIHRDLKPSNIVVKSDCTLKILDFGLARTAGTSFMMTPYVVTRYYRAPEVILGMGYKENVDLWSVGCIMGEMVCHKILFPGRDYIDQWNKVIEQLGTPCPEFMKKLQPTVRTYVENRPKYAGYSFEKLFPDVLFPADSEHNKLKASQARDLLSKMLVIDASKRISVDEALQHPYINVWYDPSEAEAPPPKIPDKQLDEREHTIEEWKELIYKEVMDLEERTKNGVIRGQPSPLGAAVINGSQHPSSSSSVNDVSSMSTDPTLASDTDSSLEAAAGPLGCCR

[13] = test system: Leucine-rich repeat serine/threonine-protein kinase 2 (Homo sapiens), Q5S007 [G2019S]; assay: Inhibition of LRRK2 G2019S mutant (unknown origin) at 3 uM by ADAPTA assay relative to control
Leucine-rich repeat serine/threonine-protein kinase 2 (Homo sapiens), Q5S007 [G2019S], sequence (Q5S007 whole entry G2019S): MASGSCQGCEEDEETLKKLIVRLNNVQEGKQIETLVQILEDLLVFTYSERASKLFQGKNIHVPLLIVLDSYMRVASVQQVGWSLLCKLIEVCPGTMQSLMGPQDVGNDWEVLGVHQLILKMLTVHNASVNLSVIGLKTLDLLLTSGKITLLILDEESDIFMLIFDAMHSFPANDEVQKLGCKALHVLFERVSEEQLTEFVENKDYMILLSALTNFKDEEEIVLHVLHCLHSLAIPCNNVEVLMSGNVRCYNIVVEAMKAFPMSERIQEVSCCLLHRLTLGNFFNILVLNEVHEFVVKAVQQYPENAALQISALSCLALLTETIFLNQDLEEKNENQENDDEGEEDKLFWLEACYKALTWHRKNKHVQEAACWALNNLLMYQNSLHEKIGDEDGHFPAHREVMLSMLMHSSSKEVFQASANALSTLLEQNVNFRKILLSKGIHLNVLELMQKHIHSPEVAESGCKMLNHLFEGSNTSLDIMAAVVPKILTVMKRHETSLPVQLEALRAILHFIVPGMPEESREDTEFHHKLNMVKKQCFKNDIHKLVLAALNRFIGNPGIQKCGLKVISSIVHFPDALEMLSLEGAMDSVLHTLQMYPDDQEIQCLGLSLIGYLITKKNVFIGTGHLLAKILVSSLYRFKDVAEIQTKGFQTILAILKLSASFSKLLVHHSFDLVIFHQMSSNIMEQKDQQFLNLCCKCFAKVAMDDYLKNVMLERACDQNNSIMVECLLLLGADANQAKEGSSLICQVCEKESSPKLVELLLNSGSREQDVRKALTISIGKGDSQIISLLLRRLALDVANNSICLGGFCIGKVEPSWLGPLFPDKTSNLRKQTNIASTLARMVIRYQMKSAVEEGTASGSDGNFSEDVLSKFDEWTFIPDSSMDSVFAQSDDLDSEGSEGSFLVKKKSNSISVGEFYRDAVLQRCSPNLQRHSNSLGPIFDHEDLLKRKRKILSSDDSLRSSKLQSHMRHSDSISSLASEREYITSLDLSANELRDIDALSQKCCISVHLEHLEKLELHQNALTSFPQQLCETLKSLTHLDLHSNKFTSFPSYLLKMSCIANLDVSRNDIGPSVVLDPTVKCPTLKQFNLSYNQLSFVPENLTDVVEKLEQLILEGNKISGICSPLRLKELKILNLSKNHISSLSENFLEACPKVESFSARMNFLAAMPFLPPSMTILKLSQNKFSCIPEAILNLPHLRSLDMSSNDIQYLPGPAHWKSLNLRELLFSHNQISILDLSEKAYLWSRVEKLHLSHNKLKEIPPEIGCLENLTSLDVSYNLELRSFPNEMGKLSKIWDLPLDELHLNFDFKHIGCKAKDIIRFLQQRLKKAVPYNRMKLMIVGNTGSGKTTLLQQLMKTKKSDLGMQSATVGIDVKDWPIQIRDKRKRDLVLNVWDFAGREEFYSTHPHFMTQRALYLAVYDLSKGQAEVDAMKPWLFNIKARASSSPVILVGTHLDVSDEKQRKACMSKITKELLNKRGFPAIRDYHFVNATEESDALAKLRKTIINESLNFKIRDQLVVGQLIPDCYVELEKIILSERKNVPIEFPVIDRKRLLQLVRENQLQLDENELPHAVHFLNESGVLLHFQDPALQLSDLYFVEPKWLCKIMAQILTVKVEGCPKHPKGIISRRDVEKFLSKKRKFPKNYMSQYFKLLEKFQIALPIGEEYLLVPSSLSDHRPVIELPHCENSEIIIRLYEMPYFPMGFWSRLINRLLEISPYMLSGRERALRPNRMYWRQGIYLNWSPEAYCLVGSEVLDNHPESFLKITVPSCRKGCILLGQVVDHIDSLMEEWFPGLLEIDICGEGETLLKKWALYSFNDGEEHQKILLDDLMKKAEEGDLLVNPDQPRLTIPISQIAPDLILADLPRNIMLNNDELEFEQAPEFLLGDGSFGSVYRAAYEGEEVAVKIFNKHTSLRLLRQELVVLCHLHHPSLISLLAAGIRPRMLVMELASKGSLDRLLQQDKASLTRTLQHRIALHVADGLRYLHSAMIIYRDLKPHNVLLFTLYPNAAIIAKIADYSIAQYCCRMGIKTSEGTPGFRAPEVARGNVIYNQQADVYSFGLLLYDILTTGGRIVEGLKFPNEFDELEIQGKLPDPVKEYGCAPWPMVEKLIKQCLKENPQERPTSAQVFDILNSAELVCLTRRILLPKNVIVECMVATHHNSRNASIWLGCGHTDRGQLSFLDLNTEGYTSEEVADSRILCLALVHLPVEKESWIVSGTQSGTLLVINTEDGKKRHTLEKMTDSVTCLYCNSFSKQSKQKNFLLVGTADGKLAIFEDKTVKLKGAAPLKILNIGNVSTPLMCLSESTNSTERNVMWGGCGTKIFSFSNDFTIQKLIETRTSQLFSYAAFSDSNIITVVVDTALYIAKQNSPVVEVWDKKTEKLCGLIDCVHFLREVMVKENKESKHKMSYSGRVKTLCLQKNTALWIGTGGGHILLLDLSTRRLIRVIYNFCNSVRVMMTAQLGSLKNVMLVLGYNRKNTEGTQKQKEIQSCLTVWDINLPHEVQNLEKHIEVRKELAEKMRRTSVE

[14] = Antitumor activity against human CAL-51 cells xenografted in CB17-SCID mouse assessed as tumor growth inhibition at 30 to 50 mg/kg, iv administered once per week for 16 days relative to control; assay type: functional; conditions: dose 30-50 mg/kg, time 16 day
[15] = molecular target: MAP kinase-activated protein kinase 3 (Homo sapiens, UniProt Q16644); assay: Inhibition of MAPKAPK3 (unknown origin) at 3 uM by Z-lyte assay relative to control
MAP kinase-activated protein kinase 3, sequence (Q16644 whole entry, looked up): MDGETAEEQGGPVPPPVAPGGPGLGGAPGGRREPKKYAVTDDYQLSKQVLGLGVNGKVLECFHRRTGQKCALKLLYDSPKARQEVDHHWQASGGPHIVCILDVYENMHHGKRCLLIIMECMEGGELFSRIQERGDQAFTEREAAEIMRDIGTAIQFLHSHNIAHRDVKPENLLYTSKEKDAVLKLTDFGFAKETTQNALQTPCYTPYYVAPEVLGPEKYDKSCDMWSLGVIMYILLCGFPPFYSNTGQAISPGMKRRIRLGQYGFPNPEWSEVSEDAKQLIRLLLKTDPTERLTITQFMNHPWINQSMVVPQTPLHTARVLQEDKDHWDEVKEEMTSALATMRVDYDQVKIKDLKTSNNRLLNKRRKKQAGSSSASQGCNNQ

[16] = Toxicity in CB17-SCID mouse xenografted with human CAL-51 cells assessed as body weight loss at 30 to 50 mg/kg, iv administered once per week for 16 days; assay type: organism-based; conditions: in vivo, 384 h, dose 30-50 mg/kg, time 16 day
Homo sapiens [17] = species on record: Homo sapiens; assay: Inhibition of Bombesin receptor (unknown origin) at 10 uM relative to control
[18] = Toxicity in CB17-SCID mouse xenografted with human TNBC PDX-CAL-51 cells assessed as body weight loss at 80 mg/kg, iv administered once per week for 3 weeks; assay type: organism-based; conditions: in vivo, 504 h

Muscarinic acetylcholine receptor M3 (Homo sapiens), sequence (P20309 whole entry, looked up): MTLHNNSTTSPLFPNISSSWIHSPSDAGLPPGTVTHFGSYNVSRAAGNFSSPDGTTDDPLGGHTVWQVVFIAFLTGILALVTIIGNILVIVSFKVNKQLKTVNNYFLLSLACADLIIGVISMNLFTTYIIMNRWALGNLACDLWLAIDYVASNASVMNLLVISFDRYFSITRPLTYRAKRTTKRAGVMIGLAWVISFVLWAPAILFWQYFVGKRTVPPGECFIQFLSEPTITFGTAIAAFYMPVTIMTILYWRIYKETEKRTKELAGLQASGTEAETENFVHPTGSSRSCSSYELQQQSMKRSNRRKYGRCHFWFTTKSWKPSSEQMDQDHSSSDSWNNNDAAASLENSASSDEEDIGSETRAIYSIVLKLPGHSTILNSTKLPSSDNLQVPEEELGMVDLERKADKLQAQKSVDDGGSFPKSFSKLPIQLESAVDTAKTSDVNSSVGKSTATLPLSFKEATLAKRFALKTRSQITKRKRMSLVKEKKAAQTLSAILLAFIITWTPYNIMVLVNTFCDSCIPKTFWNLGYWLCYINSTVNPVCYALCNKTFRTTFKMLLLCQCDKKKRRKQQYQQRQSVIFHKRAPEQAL

inhibition [1]: 80%
Ratio IC50 (Homo sapiens [2]): 64
Ratio IC50 (Homo sapiens [3]): 315
solubility kinetic at 24 h, 200 µM [4]: 180 µM (≈ 131 µg/mL)
Ratio IC50 (Homo sapiens [5]): 182
IC50 [6]: 1300 nM
Ratio IC50 (Homo sapiens [7]): 433
clearance [8]: 8.8 mL/min/kg
IC50 [9]: 48 nM
IC50 [10]: 74 nM
inhibition [11]: 80%
IC50 [12]: 192 nM
inhibition [13]: > 80%
inhibition [15]: > 80%
inhibition (Homo sapiens [17]): 80%
SMILES: CCc1cccc(CC)c1N1CCn2cc(-c3nc(Nc4ccc(N5CCC(C(=O)N6CC7(CN(C)C7)C6)CC5)cc4OC)nc4[nH]ccc34)cc2C1=O
IC50 (CAL-51): 16 nM
TGI [14]: >60%
Activity [16]: Non-Toxic
Activity [18]: Non-Toxic
